Reference: patent publication US4156724A, “N-acylamino-alpha-arylacetamido cephalosporins and antibacterial compositions and methods containing them” (Sumitomo Chemical Company, Limited, priority 1974, dated 1979)
≈ marks a conversion by molar mass, not a printed value.

Assays:
Type in all cases: cell-based
[1] = tested on: Staphylococcus aureus FS 289; assay: Minimum Inhibitory Concentration, Staphylococcus aureus FS 289; details: FS289; Staphylococcus aureus FS 289, strain resistant to penicillin; read-out: Minimum Inhibitory Concentration
Protocol: (§1) anti-microbial activity tests were carried out on the compounds obtained in the Examples.
*Staphylococcus aureus FS 289: strain resistant to penicillin

Serratia No. 72 = assay: Minimum Inhibitory Concentration, Serratia No. 72
Protocol: as §1

[2] = tested on: Pseudomonas aeruginosa 104; assay: Minimum Inhibitory Concentration, Pseudomonas aeruginosa 104; details: Pseudomonas aeruginosa 104; read-out: Minimum Inhibitory Concentration
Protocol: as §1

Proteus vulgaris HX 19 = assay: Minimum Inhibitory Concentration, Proteus vulgaris HX 19; details: HX19; Proteus vulgaris HX 19; read-out: Minimum Inhibitory Concentration
Protocol: as §1

[3] = tested on: Staphylococcus aureus 209 P; assay: Minimum Inhibitory Concentration, Staphylococcus aureus 209 P; details: Staphylococcus aureus 209 P; read-out: Minimum Inhibitory Concentration
Protocol: as §1

Escherichia coli NIHJ = assay: Minimum Inhibitory Concentration, Escherichia coli NIHJ; details: Escherichia coli NIHJ; read-out: Minimum Inhibitory Concentration
Protocol: as §1

[4] = tested on: Klebsiella pneumoniae 602; assay: Minimum Inhibitory Concentration, Klebsiella pneumoniae 602; details: Klebsiella pneumoniae, 602, Klebsiella pneumoniae 602; read-out: Minimum Inhibitory Concentration
Protocol: as §1

[5] = tested on: Enterobacter aerogeneus No. 75; assay: Minimum Inhibitory Concentration, Enterobacter aerogeneus No. 75; details: Enterobacter aerogeneus No. 75; read-out: Minimum Inhibitory Concentration
Protocol: as §1

Structure (SMILES) | MIC [1] [µg/mL] | MIC (Serratia No. 72) [µg/mL] | MIC [2] [µg/mL] | MIC (Proteus vulgaris HX 19) [µg/mL] | MIC [3] [µg/mL] | MIC (Escherichia coli NIHJ) [µg/mL] | MIC [4] [µg/mL] | MIC [5] [µg/mL]
CSc1cnc2c(O)c(C(=O)NC(C(=O)NC3C(=O)N4C(C(=O)O)=C(CSc5nnnn5C)CSC34)c3cccc(N)c3)cnc2n1 (centres unmarked) [Example 70] | 6.25 (≈ 8.98 µM) | 12.5 (≈ 18 µM) | 6.25 (≈ 8.98 µM) | 0.1 (≈ 0.144 µM) | 1.56 (≈ 2.24 µM) | 3.13 (≈ 4.5 µM) | 3.13 (≈ 4.5 µM) | 6.25 (≈ 8.98 µM)
Cn1nnc(SCC2=C(C(=O)O)N3C(=O)C(NC(=O)C(NC(=O)c4cnc5cccnc5c4O)c4ccc(N)cc4)C3SC2)n1 (centres unmarked) [Example 82] | 6.25 (≈ 9.63 µM) | 12.5 (≈ 19.3 µM) | 3.13 (≈ 4.83 µM) | 0.1 (≈ 0.154 µM) | 0.78 (≈ 1.2 µM) | 3.13 (≈ 4.83 µM) | 1.56 (≈ 2.4 µM) | 3.13 (≈ 4.83 µM)
Cn1nnnc1SCC1=C(C(=O)O)N2C(=O)[C@@H](NC(=O)[C@H](NC(=O)c3cnc4cccnc4c3O)c3ccc(NC(N)=O)cc3)[C@H]2SC1 [Example 22] | 6.25 (≈ 9.04 µM) | 12.5 (≈ 18.1 µM) | 3.13 (≈ 4.53 µM) | 0.1 (≈ 0.145 µM) | 0.78 (≈ 1.13 µM) | 1.56 (≈ 2.26 µM) | 1.56 (≈ 2.26 µM) | 3.13 (≈ 4.53 µM)
CSc1cnc2c(O)c(C(=O)NC(C(=O)NC3C(=O)N4C(C(=O)O)=C(CSc5nnc(C)s5)CSC34)c3ccc(CO)cc3)cnc2n1 (centres unmarked) [Example 104] | 6.25 (≈ 8.6 µM) | 12.5 (≈ 17.2 µM) | 6.25 (≈ 8.6 µM) | 0.39 (≈ 0.537 µM) | 1.56 (≈ 2.15 µM) | 6.25 (≈ 8.6 µM) | 3.13 (≈ 4.31 µM) | 12.5 (≈ 17.2 µM)
NC(=O)Nc1cccc([C@@H](NC(=O)c2cnc3cccnc3c2O)C(=O)N[C@@H]2C(=O)N3C(C(=O)O)=C(CSc4ccc(O)nn4)CS[C@H]23)c1 [Example 37] | 6.25 (≈ 8.88 µM) | 12.5 (≈ 17.8 µM) | 3.13 (≈ 4.45 µM) | 0.2 (≈ 0.284 µM) | 0.78 (≈ 1.11 µM) | 1.56 (≈ 2.22 µM) | 1.56 (≈ 2.22 µM) | 6.25 (≈ 8.88 µM)
NC(=O)Nc1cccc(C(NC(=O)c2ccnnc2O)C(=O)NC2C(=O)N3C(C(=O)O)=C(CSc4nnc(CO)s4)CSC23)c1 (centres unmarked) [Example 48] | 12.5 (≈ 18.6 µM) | 100 (≈ 148 µM) | 25 (≈ 37.1 µM) | 0.78 (≈ 1.16 µM) | 0.78 (≈ 1.16 µM) | 12.5 (≈ 18.6 µM) | 3.13 (≈ 4.65 µM) | 25 (≈ 37.1 µM)
Cn1nnnc1SCC1=C(C(=O)O)N2C(=O)C(NC(=O)C(NC(=O)c3cccnc3O)c3ccc(CO)cc3)C2SC1 (centres unmarked) [Example 112] | 12.5 (≈ 20.4 µM) | 100 (≈ 163 µM) | 12.5 (≈ 20.4 µM) | 0.78 (≈ 1.27 µM) | 0.78 (≈ 1.27 µM) | 12.5 (≈ 20.4 µM) | 6.25 (≈ 10.2 µM) | 25 (≈ 40.8 µM)
Cc1nc2ncc(C(=O)NC(C(=O)NC3C(=O)N4C(C(=O)O)=C(CSc5nnnn5C)CSC34)c3ccc(CO)cc3)c(O)c2nc1C (centres unmarked) [Example 105] | 6.25 (≈ 9.02 µM) | 12.5 (≈ 18 µM) | 6.25 (≈ 9.02 µM) | 0.2 (≈ 0.289 µM) | 0.78 (≈ 1.13 µM) | 6.25 (≈ 9.02 µM) | 3.13 (≈ 4.52 µM) | 12.5 (≈ 18 µM)
CSc1cnc2c(O)c(C(=O)N[C@@H](C(=O)NC3C(=O)N4C(C(=O)O)=C(CSc5nnnn5C)CSC34)c3ccc(O)cc3)cnc2n1 (some centres unmarked) [Example 146] | 12.5 (≈ 17.9 µM) | 25 (≈ 35.9 µM) | 3.13 (≈ 4.49 µM) | 1.56 (≈ 2.24 µM) | 0.78 (≈ 1.12 µM) | 1.56 (≈ 2.24 µM) | 3.13 (≈ 4.49 µM) | 6.25 (≈ 8.97 µM)
Cc1ccc2c(O)c(C(=O)NC(C(=O)NC3C(=O)N4C(C(=O)O)=C(CSc5nnn(C)n5)CSC34)c3cccc(N)c3)cnc2n1 (centres unmarked) [Example 63] | 6.25 (≈ 9.43 µM) | 50 (≈ 75.4 µM) | 6.25 (≈ 9.43 µM) | 0.1 (≈ 0.151 µM) | 1.56 (≈ 2.35 µM) | 6.25 (≈ 9.43 µM) | 1.56 (≈ 2.35 µM) | 12.5 (≈ 18.9 µM)
CC(=O)OCC1=C(C(=O)O)N2C(=O)C(NC(=O)[C@H](NC(=O)c3cnccc3O)c3ccc(O)cc3)C2SC1 (stereo partly drawn) [Example 113, 7-[D-α-(4-Hydroxypyridine-3-carbonamido)-α-p-hydroxyphenylacetamido]cephalosporanic Acid] | 3.13 (≈ 5.77 µM) | > 200 | 6.25 (≈ 11.5 µM) | 0.2 (≈ 0.369 µM) | 0.39 (≈ 0.719 µM) | 12.5 (≈ 23 µM) | 12.5 (≈ 23 µM) | 25 (≈ 46.1 µM)
Cc1nnc(SCC2=C(C(=O)O)N3C(=O)C(NC(=O)[C@H](NC(=O)c4cnc5cccnc5c4O)c4ccc(N)cc4)C3SC2)s1 (stereo partly drawn) [Example 52, 7-[D-α-(4-Hydroxy-1,5-naphthyridine-3-carbonamido)-α-p-aminophenylacetamido]-3-(2-methyl-1,3,4-thiadiazol-5yl)thiomethyl-3-cephem-4-carboxylic acid] | 6.25 (≈ 9.4 µM) | 12.5 (≈ 18.8 µM) | 6.25 (≈ 9.4 µM) | 0.1 (≈ 0.15 µM) | 1.56 (≈ 2.35 µM) | 1.56 (≈ 2.35 µM) | 3.13 (≈ 4.71 µM) | 3.13 (≈ 4.71 µM)
CSc1ncc2c(O)c(C(=O)NC(C(=O)NC3C(=O)N4C(C(=O)O)=C(CSc5cnn[nH]5)CSC34)c3cccc(N)c3)cnc2n1 (centres unmarked) [Example 73] | 6.25 (≈ 9.18 µM) | 25 (≈ 36.7 µM) | 6.25 (≈ 9.18 µM) | 0.2 (≈ 0.294 µM) | 0.78 (≈ 1.15 µM) | 6.25 (≈ 9.18 µM) | 3.13 (≈ 4.6 µM) | 6.25 (≈ 9.18 µM)
